In US20190224222A1, “METHOD OF INHIBITING QUORUM SENSING USING D-GALACTOSE” (Seoul National University R&DB Foundation, priority 2014, published 2019):

How the values were obtained:
[1] = test system: T. forsythia (Tf) biofilm; assay: Tf biofilm formation induced by Fn secretory material, transwell, crystal violet; type: cell-based; details: for OD590: Fn upper / Tf lower chamber, sugar 2 mM, 48-72 h, Fn/Tf control 0.55, Tf alone 0.17
Description: (§1) In order to examine efficacies of quorum sensing inhibitor (QSI) candidates on biofilm formation of periodontopathogenic bacteria which is induced by a secretory material of F. nucleatum (Fn), a test was performed using a transwell system. AI-2 naturally secreted by Fn is contained in the secretory material of Fn. Therefore, in the test using the transwell system, Fn AI-2 was not directly added to bacteria, but Fn was put in an upper chamber and Pg or Tf was put in a lower chamber. Biofilms cultured and formed in the presence or absence of QSI candidates were stained with crystal violet, followed by analysis. These conditions are to evaluate whether Pg or Tf biofilm formation is influenced by not a purified AI-2 but an AI-2-containing secretory material naturally secreted by Fn, and whether QSI candidates such as D-gal is able to inhibit the biofilm formation if the biofilm is then formed.
(§2) More specifically, the transwell system (24-well) has an upper chamber and a lower chamber which are separated from each other by a membrane of 0.4 μm. 500 μl of F. nucelatum (Fn) culture broth (the number of bacteria: 2×10^7 CFU/ml) was cultured in the upper chamber. A glass slip was placed in the lower chamber, and then the same number of P. gingivalis(Pg) or T. forsythia(Tf) was inoculated in 1 ml of medium and cultured for 48-72 hours. The same QSI candidates were added to the upper and lower chambers. As the QSI candidates, 2 mM of sugar (D-rib or D-gal) was used and 2 μM of the furanone compound [(5Z)-4-bromo-5-(bromomethylene)-2(5H)-furanone] was used. In order to examine whether biofilm formation of the bacteria in the lower chamber is influenced by Fn secretory material and QSI candidates, the biofilms formed on the glass slip were stained with crystal violet, and then quantified (see Examples 3 to 5).

[2] = test system: P. gingivalis (Pg) biofilm; assay: Pg biofilm formation induced by Fn secretory material, transwell, crystal violet; type: cell-based; details: for OD590 nm: Fn upper / Pg lower chamber, sugar 2 mM, 48-72 h, Fn/Pg control 0.57, Pg alone 0.30
Description: as §1, §2

[3] = test system: T. forsythia (Tf) biofilm; assay: Tf biofilm formation induced by Fn AI-2, crystal violet staining; type: cell-based, T. forsythia (ATCC 43037); details: for OD590 nm: Tf + Fn AI-2 10% (v/v), sugar 2 mM, 48-72 h, Tf/AI-2 control 0.48, Tf 0.32; for inhibitory effect on Tf biofilm formation, in words: crystal violet, sugars 2 mM
Description: To test biofilm formation by Tf, a test was performed in the same manner as in Example 3. That is, a Tf culture broth (2 ml; a negative control group, the number of bacteria: 2×10^8/ml), a mixture of Tf culture broth (2 ml) and Fn AI-2 (10% (v/v) with respect to the total volume of the mixture with Tf culture broth), or a mixture of Tf culture broth (2 ml) and Fn AI-2 (10% (v/v) with respect to the total volume of the mixture with Tf culture broth) and D-gal (2 mM) was added to a 24-well plate with a glass slip (round, 12 mm radius), and cultured under anaerobic conditions for 48-72 hours. For comparison, 2 mM of D-rib or 2 μM of the furanone compound [(5Z)-4-bromo-5-(bromomethylene)-2(5H)-furanone] was used instead of D-gal to perform the same test.
Biofilms formed on the cover slips were stained with 10% crystal violet [Tris(4-(dimethylamino)phenyl)methylium chloride] for 10 minutes, washed three times with PBS, and destained with 1 ml of acetone-alcohol (20:80, vol/vol). The optical density at 590 nm of the destaining solution containing crystal violet was measured using a microplate reader (a Wallac Victor3 microtiter, PerkinElmer Life Sciences, Waltham, Mass.). The smaller optical density (OD590) measured at 590 nm represents more inhibition of biofilm formation, that is, higher quorum sensing inhibitory effect of the used QSI candidate.

[4] = test system: T. forsythia (Tf) biofilm; assay: Tf biofilm formation induced by Fn AI-2, fluorescence staining (confocal); type: cell-based, T. forsythia (ATCC 43037); details: D-rib or D-gal 200 mM
Description: Further, inhibitory effects of individual QSI candidates on Tf biofilm formation induced by Fn AI-2 were examined by fluorescence staining. 2 ml of Tf culture broth (the number of bacteria: 2×10^8/ml) was used, and Fn AI-2 was used in a volume of 10% (v/v) with respect to the total volume of a mixture with Tf culture broth. As the QSI candidates, 200 mM of D-rib or D-gal was used, and 20 μM of the furanone compound was used. Biofilms formed on the cover slip were stained with fluorescent materials using the live/dead-BacLight viability kit (Invitrogen, Grand Island, N.Y., USA) and observed using a confocal microscope (Carl Zeiss, LSM 700). […] Fluorescence intensities of the obtained individual fluorescence images were quantified using ZEN 2010 program of a confocal microscope, and shown in FIG. 9.

S. mutans (Sm) biofilm [5] = assay: S. mutans biofilm formation, crystal violet staining; type: cell-based, Streptococcus mutans (ATCC 25175); details: D-gal 2 mM
Description: 2 mL (2×10^7/ml) of the culture broth of a representative cariogenic bacterium S. mutans (Sm) and 2 mL (2×10^7/ml) of the culture broth of one of normal oral flora, S. oxalis (SO) were added to a saliva-coated glass slip (round, 12 mm radius), respectively and cultured with 0 mM or 2 mM of D-galactose to form biofilms. The formed biofilms were stained with crystal violet in the same manner as in Examples 3-6 to test biofilm formation according to the presence of D-galactose. Further, the biofilms were stained with fluorescent materials using the live/dead-BacLight viability kit (Invitrogen, Grand Island, N.Y., USA), followed by analysis. For comparison, 2 μM of the furanone compound was used instead of D-galactose to perform the same test.

S. mutans (Sm) biofilm [6] = assay: S. mutans biofilm formation, fluorescence staining (confocal); type: cell-based, Streptococcus mutans (ATCC 25175); details: D-gal 200 mM vs furanone compound 20 μM
Description: Further, the inhibitory effect of D-gal on Sm biofilm formation was examined by fluorescent staining. 2 ml (2×10^7/ml) of Sm culture broth was used, and 200 mM of D-gal and 20 μM of the furanone compound were used. Biofilms formed on the cover slip were stained with fluorescent materials using the live/dead-BacLight viability kit (Invitrogen, Grand Island, N.Y., USA) and observed using a confocal microscope (Carl Zeiss, LSM 700). […] Fluorescence intensities of the obtained individual fluorescence images were quantified using ZEN 2010 program of a confocal microscope, and shown in FIG. 16.

[7] = D-gal 2 mM compared to D-rib 2 mM

Row | SMILES | OD590 [1] | OD590 nm [2] | OD590 nm [3] | inhibitory effect on Tf biofilm formation, in words [3] | inhibitory effect on Tf biofilm formation, in words [4] | inhibitory effect on Tf biofilm formation induced by Fn secretory material, in words [1, 7] | OD590 nm (S. mutans (Sm) biofilm [5]; Sm on saliva-coated glass slip, Sm control 0.48) | inhibitory effect on Sm biofilm formation, in words (S. mutans (Sm) biofilm [5]; crystal violet, furanone compound 2 μM) | inhibitory effect on Sm biofilm formation, in words (S. mutans (Sm) biofilm [6]) | inhibitory effect on Pg biofilm formation induced by Fn secretory material, in words [2, 7]
1 | O=C[C@H](O)[C@H](O)[C@H](O)CO [D-rib, D-ribose, reference compound] | 0.69 | 0.58 | 0.41 | significant inhibitory effect | inhibited |  |  |  |  | 
2 | O=C[C@H](O)[C@@H](O)[C@@H](O)[C@H](O)CO [D-gal, D-galactose] | 0.36 | 0.45 | 0.2 | excellent inhibitory effect | most excellent inhibitory effect | remarkably excellent inhibitory effect, compared to D-rib | 0.37 | significant inhibitory effect | superior to that of the furanone compound | remarkably excellent inhibitory effect, compared to D-rib
